*: point of attachment. NHNH2 = NN*
Assays:
Type in all cases: cell-based
Hela cells = experiment: EGFP mRNA delivery, robotic library screening, HeLa
Protocol: Cells were seeded in a 96 well plate the day before the experiment at a concentration of 50,000 cell/mL (100 μL/w) in DMEM+10% FBS+1% Gln-Abt. For robotic library screening, the delivery of EGFP-mRNA (from TriLink, fully substituted with 5-methoxyuridine, capped and polyadenylated; TriLink, CleanCap® EGFP mRNA (5moU), ref. L-7201) in six different cell lines was performed. Amphiphilic molecule stock solutions were prepared in DMSO as described above and diluted in DMEM to afford a range of concentrations. The solutions of EGFP-mRNA/amphiphilic molecule complexes were freshly prepared prior to the transfection experiments. 35 μL of the corresponding amphiphile were added to 10 μL of a solution of EGFP-mRNA at 10 ng/μL in DMEM. The mixture was shaken for 30 min at room temperature before the addition to the cells. The cell medium was aspirated, and cells were washed with PBS twice. Cells were covered with 39 μL of DMEM and 11 μL of the complex's solution were added to the cells and incubated for 4 h (final concentration of peptide=2.5, 5 and 10 μM; final concentration of EGFP-mRNA=25 ng/well). After the incubation, the medium was replaced by 100 μL of fresh DMEM supplemented with 10% FBS. The total EGFP fluorescence was quantified after 72 h in a well plate reader. Amphiphile transfection efficiency was compared and normalized to Lipofectamine® MessengerMax efficiency (value of 1 in Tables 1-5 and 7; double underlined numbers). All experiments were done in triplicate.
(§1) Tables 1-7: RLuc (pDNA) or EGFP (mRNA) expression levels were normalized to Lipofectamine reagents (value=1) and expressed as fold-times signal increase. In the case of siRNA, the siRNA treated cells fluorescence was compared with siMOCK control fluorescence, while Cas9-RNP mediated knockout was measured against the fluorescence of untreated cells. In both siRNA and Cas9-RNP, values are expressed as % fluorescence reduction. Amphiphile concentration was 5 μM in all cases. All experiments were performed in triplicate.
Tables 14-19 show the mean (triplicates) fluorescence intensity measured after the transfection of EGFP mRNA by different amphiphiles at different concentrations in a variety of cell lines. Background fluorescence values, accounted by untreated control cells, were subtracted for processing.

[1] = system: ARPE19 cells expressing EGFP; experiment: EGFP-targeting siRNA delivery (GFP silencing vs siMOCK), ARPE19
Protocol: (§2) To generate an EGFP expressing HeLa cell line, HeLa cells were transfected with EGFP pDNA (pEGFP-C1, Clontech) and stable transfectants were selected with 400 μg/mL of G-418 (Millipore). Green clones were selected by epifluorescence microscopy and tested for EGFP expression stability through several passages. […] All other EGFP-expressing cell lines were obtained in a similar way from parent non-EGFP-expressing cell lines.
Cells expressing EGFP were seeded in a 96 well plate the day before the experiment at a concentration of 50,000 cell/mL (100 μL/w) in DMEM+10% FBS+1% Gln-Abt. For robotic library screening, the delivery of an EGFP-targeting siRNA (EGFP: enhanced green fluorescent protein, Ambion® Silencer® GFP Positive Control siRNA (siGFP) (AM4626)) in six different cell lines expressing EGFP was performed. […] The mixture was shaken for 30 min at room temperature (rt) before the addition to the cells. The cell medium was aspirated, and cells were washed twice with PBS. Finally, 50 μL of the solution of siRNA/amphiphile complexes were added to the cells and incubated for 4 h. After transfection, the medium was replaced by 100 μL of fresh DMEM supplemented with 10% FBS. The fluorescence knockdown was quantified after 72 h in a plate reader, by comparison with cells transfected with a non-targeting siRNA control (siMOCK, Silencer™ Negative Control No. 1 siRNA (siMOCK) (AM4611)). EGFP knockdown was compared with Lipofectamine® RNAiMAX silencing efficiency (30-60% depending on cell line, defined with a numeric value in the below tables). All experiments were done in triplicate.
as §1
Tables 20-25 show the mean (triplicates) percentage of GFP-silencing, accounted by fluorescence intensity decrease relative to a non-targeting siRNA (siMOCK) control, measured after the transfection of siRNA by different amphiphiles at different concentrations in a variety of cell lines. Background values, accounted by untreated control cells, were subtracted for processing.

[2] = system: HepG2 cells expressing EGFP; experiment: Cas9-RNP delivery against EGFP (gene editing, plate reader), HepG2
Protocol: as §2
Cells expressing EGFP were seeded in a 96 well plate the day before the experiment at a concentration of 50,000 cell/mL (100 μL/w) in DMEM+10% FBS+1% Gln-Abt. For robotic library screening, the delivery of Cas9-RNP against EGFP (RNP designed to knock-out the gene encoding for the enhanced green fluorescent protein (EGFP)) was performed. For RNP assembly, 9.2 μL of crRNA and 9.2 μL of tracrRNA were mixed in 211.6 μL of Nuclease-Free Duplex Buffer (IDT), incubated for 5 min at 95° C. and slowly cooled at rt (see I. Lostalé-Seijo, et al. Peptide/Cas9 nanostructures for ribonucleoprotein cell membrane transport and gene edition, Chem. Sci., 2017). Cas9 protein was dissolved in DMEM at a final concentration of 4 μM and equal volumes of the RNA complex and Cas9 were mixed and incubated for 5 min at rt. 75 μL of the corresponding amphiphile concentrations were added to 5 μL of RNP at 2 μM. The mixture was shaken for 30 min at room temperature before the addition to the cells. The cell medium was aspirated, and cells were washed twice with PBS. Cells were covered with 30 μL of DMEM and 20 μL of the RNP/amphiphile complexes were added to the cells (final peptide concentrations=2.5, 5 and 10 μM; final Cas9-RNP concentration=50 nM) and incubated for 4 h. After the incubation, the medium was replaced by 100 μL of fresh DMEM supplemented with 10% FBS. The total EGFP fluorescence was quantified after 72 h in a plate reader (FIG. 2, Table 1 (right) and Table 6). All experiments were done in triplicate. […]
Tables 26-31 show the mean (triplicates) percentage of gene editing, accounted by GFP fluorescence intensity decrease (% of reduction), measured after the transfection of Cas9-RNP by different amphiphiles at different concentrations in a variety of cell lines. Background values, accounted by untreated control cells, were subtracted for processing.

Substance	mean fluorescence intensity (EGFP mRNA) (Hela cells; HeLa, Dodecanal, 2.5 μM)	mean fluorescence intensity (EGFP mRNA) (Hela cells; HeLa, Dodecanal, 5 μM)	mean fluorescence intensity (EGFP mRNA) (Hela cells; HeLa, Myristoleyl, 2.5 μM)	mean fluorescence intensity (EGFP mRNA) (Hela cells; HeLa, Oleyl, 5 μM)	mean fluorescence intensity (EGFP mRNA) (Hela cells; HeLa, Petroselinyl, 10 μM)	mean fluorescence intensity (EGFP mRNA) (Hela cells; Hela, Myristoleyl, 5 μM)	mean fluorescence intensity (EGFP mRNA) (Hela cells; Hela, Petroselinyl, 5 μM)	percentage of GFP-silencing relative to siMOCK ([1]; Dodecanal, 5 μM)	percentage of GFP-silencing relative to siMOCK ([1]; Dodecanal, 10 μM)	percentage of GFP-silencing relative to siMOCK ([1]; Dodecanal, 15 μM)	percentage of GFP-silencing relative to siMOCK ([1]; Myristoleyl, 5 μM)	percentage of GFP-silencing relative to siMOCK ([1]; Oleyl, 10 μM)	percentage of GFP-silencing relative to siMOCK ([1]; Oleyl, 15 μM)	percentage of GFP-silencing relative to siMOCK ([1]; Palmitoleyl, 5 μM)	percentage of GFP-silencing relative to siMOCK ([1]; Palmitoleyl, 10 μM)	percentage of GFP-silencing relative to siMOCK ([1]; Petroselinyl, 10 μM)	percentage of GFP-silencing relative to siMOCK ([1]; Petroselinyl, 15 μM)	percentage of gene editing, GFP fluorescence intensity decrease (% of reduction) ([2]; Dodecanal, 10 μM)	percentage of gene editing, GFP fluorescence intensity decrease (% of reduction) ([2]; Myristoleyl, 10 μM)	percentage of gene editing, GFP fluorescence intensity decrease (% of reduction) ([2]; Petroselinyl, 5 μM)	other results
Ac-RK*LRRK*LRK*-NH2 (Ac-RK(NHNH2)LRRK(NHNH2)LRK(NHNH2)-NH2; not fully specified; printed as Ac-RK*LRRK*LRK*-NH2; also: K*2,K*6,K*9: native or modified lysine (ε-amide to a linker)) [Peptide 9.3]	2347	3482	11661	441	1322	2874	9616	57%	57%	34%	47%	55%	51%	51%	30%	49%	52%	−29%	−5%	−24%	mean fluorescence intensity (EGFP mRNA) (Hela cells; Hela, Oleyl, 10 μM): 335; mean fluorescence intensity (EGFP mRNA) (Hela cells; Hela, Palmitoleyl, 5 μM): 3313; percentage of GFP-silencing relative to siMOCK ([1]; Oleyl, 5 μM): 20%; percentage of GFP-silencing relative to siMOCK ([1]; Palmitoleyl, 15 μM): 11%; percentage of GFP-silencing relative to siMOCK ([1]; Petroselinyl, 5 μM): 18%; percentage of gene editing, GFP fluorescence intensity decrease (% of reduction) ([2]; Dodecanal, 15 μM): −26%; percentage of gene editing, GFP fluorescence intensity decrease (% of reduction) ([2]; Oleyl, 5 μM): −10%; percentage of gene editing, GFP fluorescence intensity decrease (% of reduction) ([2]; Oleyl, 10 μM): 3%; percentage of gene editing, GFP fluorescence intensity decrease (% of reduction) ([2]; Petroselinyl, 10 μM): −19%
Ac-RK*LRRLLRK*-NH2 (Ac-RK(NHNH2)LRRLLRK(NHNH2)-NH2; not fully specified; printed as Ac-RK*LRRLLRK*-NH2; also: K*2,K*9: native or modified lysine (ε-amide to a linker)) [Peptide 9.2]	933	390	1738			585		13%	34%	30%	24%							−35%	−17%		percentage of gene editing, GFP fluorescence intensity decrease (% of reduction) ([2]; Dodecanal, 15 μM): −35%
Ac-RRHK*RLK*RRLK*RL-NH2 (Ac-RRHK(NHNH2)RLK(NHNH2)RRLK(NHNH2)RL-NH2; not fully specified; printed as Ac-RRHK*RLK*RRLK*RL-NH2; also: K*4,K*7,K*11: native or modified lysine (ε-amide to a linker)) [13(Leu-His)]					45		112	27%	31%	41%		26%	15%	46%	26%	34%	13%	−37%	11%	−7%	percentage of GFP-silencing relative to siMOCK ([1]; Myristoleyl, 10 μM): 25%; percentage of GFP-silencing relative to siMOCK ([1]; Myristoleyl, 15 μM): 0%; percentage of GFP-silencing relative to siMOCK ([1]; Palmitoleyl, 15 μM): 24%; percentage of gene editing, GFP fluorescence intensity decrease (% of reduction) ([2]; Oleyl, 15 μM): −22%; percentage of gene editing, GFP fluorescence intensity decrease (% of reduction) ([2]; Palmitoleyl, 5 μM): −36%; percentage of gene editing, GFP fluorescence intensity decrease (% of reduction) ([2]; Palmitoleyl, 10 μM): 8%; percentage of gene editing, GFP fluorescence intensity decrease (% of reduction) ([2]; Palmitoleyl, 15 μM): 13%; percentage of gene editing, GFP fluorescence intensity decrease (% of reduction) ([2]; Petroselinyl, 10 μM): 9%; percentage of gene editing, GFP fluorescence intensity decrease (% of reduction) ([2]; Petroselinyl, 15 μM): 14%
Ac-RRLK*RLK*RRLK*RL-NH2 [Peptide 13.3]		445	535	427	489	580	497	29%	51%	37%					11%	13%	−42%	−11%	3%	−20%	mean fluorescence intensity (EGFP mRNA) (Hela cells; HeLa, Petroselinyl, 2.5 μM): 633; mean fluorescence intensity (EGFP mRNA) (Hela cells; Hela, Dodecanal, 10 μM): 393; mean fluorescence intensity (EGFP mRNA) (Hela cells; Hela, Myristoleyl, 10 μM): 424; percentage of GFP-silencing relative to siMOCK ([1]; Petroselinyl, 5 μM): 11%; percentage of gene editing, GFP fluorescence intensity decrease (% of reduction) ([2]; Dodecanal, 5 μM): −27%; percentage of gene editing, GFP fluorescence intensity decrease (% of reduction) ([2]; Myristoleyl, 5 μM): −22%; percentage of gene editing, GFP fluorescence intensity decrease (% of reduction) ([2]; Palmitoleyl, 5 μM): −30%; percentage of gene editing, GFP fluorescence intensity decrease (% of reduction) ([2]; Palmitoleyl, 10 μM): −19%

Source: patent US20250304623A1, “PEPTIDES FOR INTRACELLULAR DELIVERY” (UNIVERSIDADE DE SANTIAGO DE COMPOSTELA, priority 2022, published 2025)
